The text below walks through data of PubChem BioAssay (NCI).

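Assay format: 96-well plates, 48-hour exposure. Here, GI50 denotes the concentration required for 50% inhibition of growth. The concentration for full growth arrest is given as TGI.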

What all share (assay): NCI-60 cell line screen, 48 h
Assay [1] deals with A498 renal.
Assay [2] deals with HCT-116 colon.
In assay [3] the test system is HL-60(TB) leukemia.
The subject of assay [4] is MALME-3M melanoma.
The test system of assay [5] is MDA-MB-435.
Assay [6] deals with NCI-H522 lung.
Assay [7] deals with OVCAR-3 ovarian.
Assay [8] deals with OVCAR-8 ovarian.
For assay [9], the system named is UACC-62 melanoma.
Assay [10] relates to OVCAR-4 ovarian.

For the compound `Cc1cc2c(C(C)C)c(O)c(O)c(C=Nc3cc(C(F)(F)F)ccc3Cl)c2c(O)c1-c1c(C)cc2c(C(C)C)c(O)c(O)c(C=Nc3cc(C(F)(F)F)ccc3Cl)c2c1O`, the TGI was more than 100 µM in assay [1]; more than 100 µM in [2]; 78.5 µM in [3]; 95 µM in assay [4]; 86 µM in assay [5]; 45.4 µM in assay [6]. Further, the results for the TGI in assay [7], in assay [8] and in assay [9] were more than 100 µM, more than 100 µM and 51.8 µM, respectively.
`COc1ccc(C2SC(N)=Nc3c2c(C)nn3C(=O)c2ccc(Cl)cc2)cc1OC` (stereo not given): the TGI in [2], in assay [3], in assay [4], in assay [5], in assay [6] and in assay [7] was more than 10 µM each time. The TGI in assay [10], in assay [8] and in assay [9] was more than 10 µM throughout.
On to `COC(=O)C1=C(OC(=O)c2ccc(Cl)cc2)C(C(=O)OC)[C@@]2(O)[C@@H](C(=O)OC)C(c3ccccc3C(F)(F)F)C[C@@H]1[C@@H]2C(=O)OC` (stereo not given in full), for which the GI50 in [1] is 1.76 µM; in assay [2] it was 2.92 µM; in [5], 17.6 µM; in assay [6], 16.4 µM; in assay [7], 20.3 µM; in assay [8], 2.72 µM. In [9], the GI50 was 1.8 µM. In addition, the TGI in assay [1] came out at 7.25 µM; in assay [2] it was 11.4 µM; in assay [5], 50.2 µM; in [6], 43.6 µM; in [7] it was 47.9 µM; in [8], 9.87 µM. The same compound yielded a TGI in [9] of 3.65 µM.
Regarding `COc1cc(-c2csc(NC(=O)c3cc(C(F)(F)F)cc(C(F)(F)F)c3)n2)cc(OC)c1OC`, the GI50 is 2.63 µM in [1]; 2.07 µM in [3]; 2.67 µM in assay [5]; 1.4 µM in [6]; 2.98 µM in assay [7]; 2.86 µM in assay [10]. In addition, the GI50 in assay [8] was 2.77 µM. Moreover, the TGI in assay [1] was more than 100 µM; in [3], 6.18 µM; in [5], more than 100 µM; in assay [6], 5.05 µM; in assay [7], 19 µM; in [10] it was more than 100 µM. The compound further showed a TGI in assay [8] of more than 100 µM.
Take `COc1ccc2nc(-c3ccccc3)cc(Nc3cccc(/C(C)=N\O)c3)c2c1`: the GI50 in [1] was 11.8 µM; in assay [2] it was 2.58 µM; in [3], more than 100 µM; in [4], 4.29 µM; in assay [5], 2.5 µM; in [6], 73.9 µM. Besides, the GI50 in assay [10] was 5.65 µM; in [8] it was 3 µM; in assay [9], 5.42 µM. In addition, the TGI in assay [1] is 37.3 µM; in assay [2], more than 100 µM; in [3], more than 100 µM; in [4], 20.2 µM; in assay [5], 7.96 µM; in [6] it was more than 100 µM. The TGI was more than 100 µM in assay [10], more than 100 µM in [8] and 30.5 µM in assay [9].
Turning to `O=C(CC(C(=O)c1cccs1)c1ccc2c(c1)OCO2)c1ccc(Br)cc1` (stereo not given), the TGI in [1], in [3], in [4], in assay [5], in assay [10] and in assay [8] was more than 100 µM each time. The compound also came in with a TGI in [9] of more than 100 µM.
Take `COC(=O)c1nc(NN)[nH]c(=O)c1CCCCCc1c(C(=O)OC)[nH]c(NN)cc1=O`: the TGI in [1], in assay [2], in [3], in [4], in assay [6] and in [7] was more than 100 µM each time. For the same compound, the TGI in [10], in [8] and in assay [9] was more than 100 µM throughout.
Turning to `CCc1nc(N)nc(N)c1-c1ccc([N+](=O)[O-])c(NCc2ccccc2)c1`, the TGI in assay [1] was 32.9 µM; in [2], more than 47.3 µM; in assay [3] it was 18.7 µM; in assay [5], 38.3 µM; in assay [6], 35.6 µM; in [7] it was 36.6 µM. Further, the TGI in assay [10] amounted to 58.1 µM; in [8] it was 42.2 µM; in assay [9] it was 35.7 µM.
Take `CC[C@H](C)[C@H](NC(=O)c1cnccn1)C(=O)N(C)[C@H](C[C@@H](OC(C)=O)c1nc(C(=O)N[C@@H](Cc2ccccc2)C[C@H](C)C(=O)OC)cs1)C(C)C`: the GI50 in assay [1] is 0.907 µM; in assay [2] it was 1.19 µM; in assay [3] it was 0.9 µM; in assay [4], 3.3 µM; in [6] it was 0.0552 µM; in assay [7], 0.665 µM. Besides, the GI50 is 2.52 µM in assay [10], 1.68 µM in assay [8] and 0.105 µM in assay [9]. Moreover, the TGI in assay [1] was 3.15 µM; in [2], more than 33.3 µM; in [3], 2.24 µM; in [4], more than 33.3 µM; in assay [6] it was 2.49 µM; in assay [7] it was 1.62 µM. Besides, the TGI in assay [10], in assay [8] and in assay [9] was more than 33.3 µM throughout.
Turning to `NS(=O)(=O)c1ccc(N2Cc3cc(Cl)ccc3OC3=C2C(=O)N(CC2CCCCC2)C3=O)cc1`, the GI50 is 1.26 µM in assay [1]; 0.208 µM in assay [2]; 0.283 µM in [3]; 1.3 µM in assay [4]; 0.903 µM in assay [5]; 0.273 µM in [6]. For the same compound, the values for the GI50 in [7], in [10] and in [9] were 0.207 µM, 0.897 µM and 0.377 µM, respectively. In addition, the TGI stood at 2.85 µM in [1]; 0.44 µM in assay [2]; 0.828 µM in assay [3]; 2.83 µM in [4]; 2.23 µM in assay [5]; 0.676 µM in [6]. The TGI in assay [7] worked out at 0.429 µM; in [10], 2.46 µM; in [9], 1.61 µM.
